Reference: PMC7919492, “Synthesis of Rottlerone Analogues and Evaluation of Their α-Glucosidase and DPP-4 Dual Inhibitory and Glucose Consumption-Promoting Activity” (Molecules, 2021)
“Also recorded” adds a separate entry of the source. Like-named read-outs stand apart in the source and are kept apart here.

Assays:
DPP-4 = molecular target: T1, DPP-4 (Homo sapiens, UniProt P27487); test: DPP-4 inhibition assay (glycyl proline p-nitroaniline substrate); assay type: biochemical; conditions: average of three independent experiments, each in duplicate; 37 °C, 30 min
T1 construct: purchased PROSPEC ENZ-375
T1 sequence (P27487 whole entry): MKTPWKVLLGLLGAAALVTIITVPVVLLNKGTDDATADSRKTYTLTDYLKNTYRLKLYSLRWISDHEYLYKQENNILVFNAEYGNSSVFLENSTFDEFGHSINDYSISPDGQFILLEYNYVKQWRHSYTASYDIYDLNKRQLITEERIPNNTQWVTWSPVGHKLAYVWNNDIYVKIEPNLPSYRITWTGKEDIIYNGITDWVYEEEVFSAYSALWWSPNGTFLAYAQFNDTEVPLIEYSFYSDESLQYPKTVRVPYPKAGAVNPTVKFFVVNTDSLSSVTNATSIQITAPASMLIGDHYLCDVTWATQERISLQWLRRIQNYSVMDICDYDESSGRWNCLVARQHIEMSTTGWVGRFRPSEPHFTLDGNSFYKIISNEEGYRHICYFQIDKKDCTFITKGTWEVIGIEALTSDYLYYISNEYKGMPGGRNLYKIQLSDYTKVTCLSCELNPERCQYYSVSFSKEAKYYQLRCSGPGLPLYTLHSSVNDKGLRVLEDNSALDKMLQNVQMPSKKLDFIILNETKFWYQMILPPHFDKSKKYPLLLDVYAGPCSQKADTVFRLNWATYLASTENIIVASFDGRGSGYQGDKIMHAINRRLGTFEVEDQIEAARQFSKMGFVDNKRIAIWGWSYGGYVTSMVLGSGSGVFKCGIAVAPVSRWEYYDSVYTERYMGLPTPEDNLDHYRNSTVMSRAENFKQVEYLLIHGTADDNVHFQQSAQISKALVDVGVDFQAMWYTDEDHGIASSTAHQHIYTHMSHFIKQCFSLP
Method: The enzyme and substrate were dissolved in Tris-HCl buffer (0.1 M, pH 8.0). The enzymatic reaction mixture that was composed of DPP-4 (0.01 U, 50 μL), substrate (2.2 mM, 50 μL), test compounds (10 μL), and Tris-HCl buffer (90 μL) was incubated at 37 °C for 30 min. […] The results are the average of three independent experiments, each being performed in duplicate.

[1] = molecular target: T2, α-glucosidase from baker’s yeast (Saccharomyces cerevisiae, UniProt P53341); test: biochemical; assay type: biochemical; conditions: for fold higher α-glucosidase inhibitory activity than 3: compared with compound 3; for fold higher α-glucosidase inhibitory activity than 5a: compared with compound 5a
T2 construct: purchased Sigma G5003
T2 sequence (P53341 whole entry): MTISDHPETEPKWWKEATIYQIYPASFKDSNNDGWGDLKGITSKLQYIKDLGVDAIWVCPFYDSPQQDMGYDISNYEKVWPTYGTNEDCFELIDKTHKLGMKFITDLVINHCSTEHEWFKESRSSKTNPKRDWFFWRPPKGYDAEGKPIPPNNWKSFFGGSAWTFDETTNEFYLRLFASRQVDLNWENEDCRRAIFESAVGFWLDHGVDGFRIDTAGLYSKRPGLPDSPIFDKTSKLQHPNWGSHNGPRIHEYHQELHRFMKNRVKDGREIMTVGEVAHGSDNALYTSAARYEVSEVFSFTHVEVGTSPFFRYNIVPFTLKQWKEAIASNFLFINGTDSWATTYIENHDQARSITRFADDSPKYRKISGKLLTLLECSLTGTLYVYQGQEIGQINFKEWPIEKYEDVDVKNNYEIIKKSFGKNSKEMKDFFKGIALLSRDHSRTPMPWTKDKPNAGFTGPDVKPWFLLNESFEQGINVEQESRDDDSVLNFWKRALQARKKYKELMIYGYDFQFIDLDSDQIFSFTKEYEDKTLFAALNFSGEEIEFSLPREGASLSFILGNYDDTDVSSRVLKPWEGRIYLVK
Method: The commercially available α-glucosidase from baker’s yeast (Sigma, G5003) was selected as the target protein while using p-nitrophenyl-α-D-glucopyranoside (pNGP, Sigma, N1377) as the substrate. […] The enzyme and substrate were dissolved in potassium phosphate buffer (0.05 M, pH 6.8). The enzymatic reaction mixture that was composed of α-glucosidase (0.04 U, 20 μL), substrate (0.5 mM, 30 μL), test compounds (20 μL), and potassium phosphate buffer (130 μL) was incubated at 37 °C for 30 min. The enzymatic activity was detected by spectrophotometer at the wavelength of 405 nm. The results are the average of three independent experiments, each being performed in duplicate.

α-glucosidase = molecular target: T3, α-glucosidase (Saccharomyces cerevisiae, UniProt P53341); test: Kinetics of enzyme inhibition (velocity vs enzyme plots, Lineweaver-Burk); assay type: biochemical, baker’s yeast; conditions: for reversibility of α-glucosidase inhibition: plots of velocity versus enzyme concentration at different inhibitor concentrations
T3 construct: purchased Sigma G5003
T3 sequence (P53341 whole entry): as above
Method: The commercially available α-glucosidase from baker’s yeast (Sigma, G5003) was selected as the target protein while using p-nitrophenyl-α-D-glucopyranoside (pNGP, Sigma, N1377) as the substrate. The compounds and acarbose were dissolved in DMSO. The enzyme and substrate were dissolved in potassium phosphate buffer (0.05 M, pH 6.8). The enzymatic reaction mixture that was composed of α-glucosidase (0.04 U, 20 μL), substrate (0.5 mM, 30 μL), test compounds (20 μL), and potassium phosphate buffer (130 μL) was incubated at 37 °C for 30 min. The enzymatic activity was detected by spectrophotometer at the wavelength of 405 nm. The results are the average of three independent experiments, each being performed in duplicate.
The kinetics of enzyme inhibition was performed with the same assays detailed above, in the presence of different concentrations of compounds 4d and 5d, substrate, and enzyme, respectively. The inhibitory kinetics of 4d and 5d on α-glucosidase was analyzed using the Lineweaver-Burk plot of the substrate concentration and velocity.

HepG2 cells = test: Glucose consumption assay in HepG2 cells; assay type: cell-based, human; conditions: 24 h
Method: Briefly, the HepG2 cells were cultured in Dulbecco’s-modified Eagle’s medium (DMEM) containing 25 mmol/L D-glucose, 10% heat-inactivated fetal bovine serum (FBS), 10 U/mL penicillin, and […] streptomycin at 37 °C, 5% CO2 atmosphere. The culture solution was replaced every other day and then passaged once for 2–3 d. The cells were seeded into 96-well plate with twenty-four wells left as blanks. After reaching 70–80% confluence, the cells were washed with PBS twice and the medium was replaced by DMEM containing 25 mmol/L D-glucose to hunger for 24 h. The cells were washed with PBS twice and the medium was replaced by RPMI-1640 containing 11.1 mmol/L glucose that was supplemented with 0.2% bovine serum albumin (BSA). To the medium was then added 1 mmol/L metformin or purified product at different concentrations, and DMSO was used as the blank control. The glucose concentration in the medium […] 24 h treatment. Glucose consumption = glucose concentrations of blank wells − glucose concentrations of plated wells. The sulforhodamine B (SRB) assay was used to adjust the glucose consumption values. The SRB assay is based on the measurement of cellular protein content. […] Bound SRB was solubilized with 150 μL Tris-base (10 mmol/L, pH 10.5) solution for OD determination at 546 nm while using a microplate reader.

[2] = average of three independent experiments, each in duplicate, 37 °C, 30 min, read-out: IC50 α-Glucosidase

Compound | IC50 (DPP-4) [µM] | IC50 [1, 2] [µM] | IC50 [1] [µM] | also measured
CC1(C)C=Cc2c(O)c(Cc3c(O)c4c(c(C(=O)C=Cc5ccccc5)c3O)OC(C)(C)C=C4)c(O)c(C(=O)C=Cc3ccccc3)c2O1 (stereo in doubt) [Compound 3, (2Z,2’Z)-1,1’-(Methylenebis(5,7-dihydroxy-2,2-dimethyl-2H-chromene-6,8-diyl))bis (3-phenylprop-2-en-1-one)] | > 50 | 5.91 ± 0.19 |  | 
COc1ccc(C=CC(=O)c2c(O)c(Cc3c(O)c4c(c(C(=O)C=Cc5ccc(OC)cc5)c3O)OC(C)(C)C=C4)c(O)c3c2OC(C)(C)C=C3)cc1 (stereo in doubt) [Compound 4a, (2Z,2’Z)-1,1’-(Methylenebis(5,7-dihydroxy-2,2-dimethyl-2H-chromene-6,8-diyl))bis (3-(4-methoxyphenyl)prop-2-en-1-one)] | > 50 |  | 6.41 ± 0.33 | 
CC1(C)C=Cc2c(O)c(Cc3c(O)c4c(c(C(=O)C=Cc5ccc(F)cc5)c3O)OC(C)(C)C=C4)c(O)c(C(=O)C=Cc3ccc(F)cc3)c2O1 (stereo in doubt) [Compound 4b, (2Z,2’Z)-1,1’-(Methylenebis(5,7-dihydroxy-2,2-dimethyl-2H-chromene-6,8-diyl))bis (3-(4-fluoro phenyl)prop-2-en-1-one)] | > 50 |  | 8.71 ± 0.54 | 
CC1(C)C=Cc2c(O)c(Cc3c(O)c4c(c(C(=O)C=Cc5ccsc5)c3O)OC(C)(C)C=C4)c(O)c(C(=O)C=Cc3ccsc3)c2O1 (stereo in doubt) [Compound 4d, (2Z,2’Z)-1,1’-(Methylenebis(5,7-dihydroxy-2,2-dimethyl-2H-chromene-6,8-diyl))bis (3-(thiophen-3-yl)prop-2-en-1-one)] | 23.59 ± 0.14 | 0.22 ± 0.07 |  | fold higher α-glucosidase inhibitory activity than 3 [1]: 26 fold; reversibility of α-glucosidase inhibition (α-glucosidase): irreversibly; also recorded: irreversible α-glucosidase inhibitors
CC1(C)C=Cc2c(O)c(Cc3c(O)c4c(c(C(=O)C=Cc5ccc(O)cc5)c3O)OC(C)(C)C=C4)c(O)c(C(=O)C=Cc3ccc(O)cc3)c2O1 (stereo in doubt) [Compound 5a, (2Z,2’Z)-1,1’-(Methylenebis(5,7-dihydroxy-2,2-dimethyl-2H-chromene-6,8-diyl))bis (3-(4-hydroxyphenyl)prop-2-en-1-one)] | > 50 |  | 0.51 ± 0.19 | fold higher α-glucosidase inhibitory activity than 3 [1]: 10 fold
CC1(C)C=Cc2c(O)c(Cc3c(O)c4c(c(C(=O)C=Cc5ccc(O)cc5O)c3O)OC(C)(C)C=C4)c(O)c(C(=O)C=Cc3ccc(O)cc3O)c2O1 (stereo in doubt) [Compound 5b, (2Z,2’Z)-1,1’-(Methylenebis(5,7-dihydroxy-2,2-dimethyl-2H-chromene-6,8-diyl))bis (3-(2,4-dihydroxyphenyl)prop-2-en-1-one)] | > 50 |  | 0.24 ± 0.02 | fold higher α-glucosidase inhibitory activity than 5a [1]: two-fold
CC1(C)C=Cc2c(O)c(Cc3c(O)c4c(c(C(=O)C=Cc5cccc(O)c5O)c3O)OC(C)(C)C=C4)c(O)c(C(=O)C=Cc3cccc(O)c3O)c2O1 (stereo in doubt) [Compound 5c, (2Z,2’Z)-1,1’-(Methylenebis(5,7-dihydroxy-2,2-dimethyl-2H-chromene-6,8-diyl))bis (3-(2,3-dihydroxyphenyl)prop-2-en-1-one)] | > 50 |  | 1.07 ± 0.06 | 
CC1(C)C=Cc2c(O)c(Cc3c(O)c4c(c(C(=O)C=Cc5ccc(O)c(O)c5O)c3O)OC(C)(C)C=C4)c(O)c(C(=O)C=Cc3ccc(O)c(O)c3O)c2O1 (stereo in doubt) [Compound 5d, (2Z,2’Z)-1,1’-(Methylenebis(5,7-dihydroxy-2,2-dimethyl-2H-chromene-6,8-diyl))bis (3-(2,3,4-trihydroxyphenyl)prop-2-en-1-one)] | 26.19 ± 0.22 |  | 0.12 ± 0.02 | fold higher α-glucosidase inhibitory activity than 5a [1]: four-fold; glucose consumption (HepG2 cells; 0.04 μM): significantly promote glucose consumption; glucose consumption (HepG2 cells; 0.2 μM, metformin 1 mM positive control): significantly promote glucose consumption; also recorded: comparable to that of metformin; type of α-glucosidase inhibition (α-glucosidase; Lineweaver-Burk plot, 0, 0.2, 0.5 μM): mixed competitive α-glucosidase inhibitor; also recorded: mixed competitive inhibitory mode; reversibility of α-glucosidase inhibition (α-glucosidase): irreversibly; also recorded: irreversible α-glucosidase inhibitors
CC(C)=CCc1c(O)cc(O)c(C(=O)/C=C/c2ccc(O)cc2)c1O [Compound 1, Desmethylxanthohumol, reference compound] | > 50 | 22.4 ± 3.1 |  | 
CC1(C)C=Cc2c(O)cc(O)c(C(=O)/C=C/c3ccc(O)cc3)c2O1 [Compound 2, dehydrocyclodesmethylxanthohumol, reference compound] | > 50 | 9.74 ± 0.73 |  | 
CC(=O)c1c(O)c(Cc2c(O)c3c(c(C(C)=O)c2O)OC(C)(C)C=C3)c(O)c2c1OC(C)(C)C=C2 [Compound 9, 1,1’-(Methylenebis(5,7-dihydroxy-2,2-dimethyl-2H-chromene-6,8-diyl))bis (ethan-1-one)] | > 50 | 7.11 ± 0.05 |  | 
COc1c2c(c(C(=O)/C=C\c3ccccc3)c(O)c1Cc1c(O)c(C(=O)/C=C\c3ccccc3)c3c(c1OC)C=CC(C)(C)O3)OC(C)(C)C=C2 [Compound 12, (2Z,2’Z)-1,1’-(Methylenebis(7-hydroxy-5-methoxy-2,2-dimethyl-2H-chromene-6,8-diyl))bis(3-phenylprop-2-en-1-one)] | > 50 |  | 3.39 ± 0.13 | 
COc1c2c(c(C(=O)/C=C\c3ccccc3)c(O)c1Cc1c(OC)c3c(c(C(=O)/C=C\c4ccccc4)c1OC)OC(C)(C)C=C3)OC(C)(C)C=C2 [Compound 13, (Z)-1-(6-((5,7-Dimethoxy-2,2-dimethyl-8-((Z)-3-phenylacryloyl)-2H-chromen-6-yl)methyl)-7-hydroxy-5-methoxy-2,2-dimethyl-2H-chromen-8-yl)-3-phenylprop-2-en-1-one] | > 50 |  | 0.37 ± 0.04 | fold enhancement of α-glucosidase inhibitory activity compared to 12 ([1]; compared with compound 12): 10 fold
(2Z,2’Z)-1,1’-(Methylenebis(5,7-dihydroxy-2,2-dimethyl-2H-chromene-6,8-diyl))bis (3-(furan-3-yl)prop-2-en-1-one) [Compound 4c] | 21.48 ± 0.09 | 1.84 ± 0.41 |  | fold higher α-glucosidase inhibitory activity than 3 [1]: three-fold
